From patent US10766902B2, “Wee-1 inhibiting pyrazolopyrimidinone compounds” (ALMAC DISCOVERY LIMITED, priority 2016, dated 2020) come the findings set out here.

Wee-1 kinase, sequence (P30291 whole entry): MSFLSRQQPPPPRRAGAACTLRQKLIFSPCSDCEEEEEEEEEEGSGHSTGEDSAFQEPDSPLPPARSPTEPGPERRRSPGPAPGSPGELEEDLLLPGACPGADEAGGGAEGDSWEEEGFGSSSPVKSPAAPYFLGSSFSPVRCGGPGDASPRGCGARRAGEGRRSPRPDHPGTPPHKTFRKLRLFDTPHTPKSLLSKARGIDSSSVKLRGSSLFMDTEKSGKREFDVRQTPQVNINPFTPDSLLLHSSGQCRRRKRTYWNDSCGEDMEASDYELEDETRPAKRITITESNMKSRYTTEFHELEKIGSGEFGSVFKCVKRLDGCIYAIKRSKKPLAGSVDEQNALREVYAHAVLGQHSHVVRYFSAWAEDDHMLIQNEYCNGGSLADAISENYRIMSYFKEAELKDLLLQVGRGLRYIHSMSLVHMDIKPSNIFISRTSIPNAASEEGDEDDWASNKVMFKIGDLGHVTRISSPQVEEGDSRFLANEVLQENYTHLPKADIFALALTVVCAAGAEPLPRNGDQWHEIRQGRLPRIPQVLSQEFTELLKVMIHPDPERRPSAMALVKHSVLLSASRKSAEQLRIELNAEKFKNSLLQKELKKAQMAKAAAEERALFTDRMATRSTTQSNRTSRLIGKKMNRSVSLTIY

The assay has as its target Wee-1 kinase (Homo sapiens (Human), UniProt P30291). The assay is described as follows: Measurement of Wee-1 kinase activity (ADP-Glo luminescence). The conditions noted are these: read-out: Wee1 IC50. The format is biochemical. As for the experimental part: Method 1: Measurement of Wee-1 Kinase Activity
In the measurement of Wee-1 activity, a commercial peptide Poly(Lys Tyr(4:1)) hydrobromide was purchased from Sigma Aldrich and used as the substrate. Activated Wee-1 kinase was purchased from Invitrogen (PV3817) and an ADP-Glo luminescent kit was purchased from Promega.
All reactions took place in […] volumes in reaction buffer containing 40 mM Tris-HCl and 20 mM magnesium chloride, supplemented with 0.1 mg/mL bovine serum albumin and 2 mM DTT. Compounds were serially diluted in buffer and 5 μL of each concentration pipetted into a white 384 well plate (Sigma Aldrich M6186). A 5 μL aliquot of the Wee-1 enzyme was added to each well and the plate centrifuged for 1 min to ensure mixing of the enzyme and inhibitor.
The plate was incubated at room temperature for 30 minutes before the addition of 2.0 μg/mL of substrate and 30 μM ATP in a 5 μL aliquot. The plate was centrifuged for one minute and incubated for 1 h at RT.
15 μL of ADP-Glo stop reagent was added to each well to quench the reaction and deplete unconverted ATP. The plate was incubated for a further 40 min in the dark at RT.
30 μL of ADP-Glo kinase detection reagent was added to each well, converting ADP to ATP, catalysing the generation of luciferin by luciferase. The plate was shaken for 1 min, and incubated in the dark for an additional hour.
Luminescence from each well was detected using the Biotek Synergy4 HD plate reader and the percentage inhibition of kinase activity calculated for each inhibitor tested. Positive (kinase only) and negative (no kinase) controls were added to each plate to ensure specific interaction of kinase and inhibitor. The IC50 concentration for each inhibitor was calculated by plotting the percentage kinase inhibition against concentration of inhibitor and the curve generated by non-linear regression fitting.
A general note: ADP-Glo turns the ADP formed in a reaction into a luminescent signal.
A word on the IC50: it is the concentration that inhibits the measured activity by half. In the case of `C=CCn1c(=O)c2cnc(Nc3ccc(N(C)C)c(C(O)C(F)(F)F)c3)nc2n1-c1cccc(N=S(C)(C)=O)n1` (racemic) [Example 83, rac-1-(6-{[Dimethyl(oxo)-λ^6-sulfanylidene]amino}pyridin-2-yl)-6-{[4-(dimethylamino)-3-(2,2,2-trifluoro-1-hydroxyethyl)phenyl]amino}-2-(prop-2-en-1-yl)-1H,2H,3H-pyrazolo[3,4-d]pyrimidin-3-one], the half-maximal inhibitory concentration (IC50) came to 0.4 nM.

As to `C=CCn1c(=O)c2cnc(Nc3ccc(N4CCNC(C(F)(F)F)C4)cc3)nc2n1-c1cncc(N=S(C)(C)=O)n1` (racemic) [Example 93, rac-1-(6-{[Dimethyl(oxo)-λ^6-sulfanylidene]amino}pyrazin-2-yl)-2-(prop-2-en-1-yl)-6-({4-[3-(trifluoromethyl)piperazin-1-yl]phenyl}amino)-1H,2H,3H-pyrazolo[3,4-d]pyrimidin-3-one], the half-inhibitory concentration (IC50) was 0.4 nM.

As for `C=CCn1c(=O)c2cnc(Nc3ccc(N4CCN(C)CC4)cc3)nc2n1-c1cccc(S(C)(=O)=NC#N)n1` (stereo not shown) [Example 1, 1-{6-[(Cyanoimino)(methyl)oxo-λ^6-sulfanyl]pyridin-2-yl}-6-{[4-(4-methylpiperazin-1-yl)phenyl]amino}-2-(prop-2-en-1-yl)-1H,2H,3H-pyrazolo[3,4-d]pyrimidin-3-one], the half-maximal inhibitory concentration (IC50) stood at 1.1 nM. Consider `C=CCn1c(=O)c2cnc(Nc3ccc(N4CCNCC4)cc3)nc2n1-c1cccc(N=S(C)(C)=O)n1` [Example 6, 1-(6-{[Dimethyl(oxo)-λ^6-sulfanylidene]amino}pyridine-2-yl)-6-{[4-(piperazin-1-yl)phenyl]amino}-2-(prop-2-en-1-yl)-1H,2H,3H-pyrazolo[3,4-d]pyrimidin-3-one], for which the half-maximal inhibitory concentration (IC50) amounted to 1.8 nM. With `C=CCn1c(=O)c2cnc(Nc3ccc(N4CCN(C5CC5)CC4)cc3)nc2n1-c1cccc(N=S(C)(C)=O)n1` [Example 8, 6-{[4-(4-Cyclopropylpiperazin-1-yl)phenyl]amino}-1-(6-{[dimethyl(oxo)-λ^6-sulfanylidene]amino}pyridine-2-yl)-2-(prop-2-en-1-yl)-1H,2H,3H-pyrazolo[3,4-d]pyrimidin-3-one] the figure was 0.3 nM. The result for `C=CCn1c(=O)c2cnc(Nc3ccc(N4CCN[C@H](C)C4)cc3)nc2n1-c1cccc(N=S(C)(C)=O)n1` [Example 9, 1-(6-{[Dimethyl(oxo)-λ^6-sulfanylidene]amino}pyridine-2-yl)-6-({4-[(3R)-3-methylpiperazin-1-yl]phenyl}amino)-2-(prop-2-en-1-yl)-1H,2H,3H-pyrazolo[3,4-d]pyrimidin-3-one] reads 1.5 nM; that for `C=CCn1c(=O)c2cnc(Nc3ccc(N4CCN(CC)CC4)cc3)nc2n1-c1cccc(N=S(C)(C)=O)n1` [Example 10, 1-(6-{[Dimethyl(oxo)-λ^6-sulfanylidene]amino}pyridine-2-yl)-6-{[4-(4-ethylpiperazin-1-yl)phenyl]amino}-2-(prop-2-en-1-yl)-1H,2H,3H-pyrazolo[3,4-d]pyrimidin-3-one], 0.9 nM.

As to `CCCn1c(=O)c2cnc(Nc3ccc(N4CCN(C)CC4)cc3)nc2n1-c1cccc(N=S(C)(C)=O)n1` [Example 11, 1-(6-{[Dimethyl(oxo)-λ^6-sulfanylidene]amino}pyridine-2-yl)-6-{[4-(4-methylpiperazin-1-yl)phenyl]amino}-2-propyl-1H,2H,3H-pyrazolo[3,4-d]pyrimidin-3-one], the IC50 is 1.2 nM. With `C=CCn1c(=O)c2cnc(Nc3ccc(C4CCNCC4)cc3)nc2n1-c1cccc(N=S(C)(C)=O)n1` [Example 13, 1-(6-{[Dimethyl(oxo)-λ^6-sulfanylidene]amino}pyridine-2-yl)-6-{[4-(piperidin-4-yl)phenyl]amino}-2-(prop-2-en-1-yl)-1H,2H,3H-pyrazolo[3,4-d]pyrimidin-3-one] the figure was 1.2 nM. Turning to `C=CCn1c(=O)c2cnc(Nc3ccc4c(c3)CN(C)CC43CC3)nc2n1-c1cccc(N=S(C)(C)=O)n1` [Example 15, 1-(6-{[Dimethyl(oxo)-λ^6-sulfanylidene]amino}pyridine-2-yl)-6-({2′-methyl-2′,3′-dihydro-1′H-spiro[cyclopropane-1,4′-isoquinoline]-7′-yl}amino)-2-(prop-2-en-1-yl)-1H,2H,3H-pyrazolo[3,4-d]pyrimidin-3-one], the concentration for half-maximal inhibition (IC50) is 0.9 nM. As to `C=CCn1c(=O)c2cnc(Nc3ccc(N4CCN(C)CC4)cc3)nc2n1-c1cccc(N=S(C)(C)=O)c1` [Example 16, 1-(3-{[Dimethyl(oxo)-λ^6-sulfanylidene]amino}phenyl)-6-{[4-(4-methylpiperazin-1-yl)phenyl]amino}-2-(prop-2-en-1-yl)-1H,2H,3H-pyrazolo[3,4-d]pyrimidin-3-one], the IC50 was 1 nM. The result for `C=CCn1c(=O)c2cnc(Nc3ccc(N4C[C@@H](C)N[C@@H](C)C4)cc3)nc2n1-c1cccc(N=S(C)(C)=O)n1` [Example 17, 1-(6-{[Dimethyl(oxo)-λ^6-sulfanylidene]amino}pyridin-2-yl)-6-({4-[(3R,5S)-3,5-dimethylpiperazin-1-yl]phenyl}amino)-2-(prop-2-en-1-yl)-1H,2H,3H-pyrazolo[3,4-d]pyrimidin-3-one] reads 1.1 nM; that for `C=CCn1c(=O)c2cnc(Nc3ccc(N4CCNCC4)cc3)nc2n1-c1cccc(N=S(C)(C)=O)c1` [Example 18, 1-(3-{[Dimethyl(oxo)-λ^6-sulfanylidene]amino}phenyl)-6-{[4-(piperazin-1-yl)phenyl]amino}-2-(prop-2-en-1-yl)-1H,2H,3H-pyrazolo[3,4-d]pyrimidin-3-one], 0.8 nM; that for `C=CCn1c(=O)c2cnc(Nc3ccccc3)nc2n1-c1cccc(N=S(C)(C)=O)n1` [Example 19, 1-(6-{[Dimethyl(oxo)-λ^6-sulfanylidene]amino}pyridin-2-yl)-6-(phenylamino)-2-(prop-2-en-1-yl)-1H,2H,3H-pyrazolo[3,4-d]pyrimidin-3-one], 1 nM. For `C=CCn1c(=O)c2cnc(Nc3ccc(N4CCOCC4)c(CNC)c3)nc2n1-c1cccc(N=S(C)(C)=O)c1` [Example 22, 1-(3-{[Dimethyl(oxo)-λ^6-sulfanylidene]amino}phenyl)-6-({3-[(methylamino)methyl]-4-(morpholin-4-yl)phenyl}amino)-2-(prop-2-en-1-yl)-1H,2H,3H-pyrazolo[3,4-d]pyrimidin-3-one], the half-inhibitory concentration (IC50) came out at 2.6 nM. The result for `C=CCn1c(=O)c2cnc(Nc3ccc(N4CCN(C)CC4)cc3)nc2n1-c1cccc(N=S2(=O)CCCC2)n1` [Example 23, 2-Allyl-6-((4-(4-methylpiperazin-1-yl)phenyl)amino)-1-(6-((1-oxidotetrahydrothiophen-1-ylidene)amino)pyridin-2-yl)-1H-pyrazolo[3,4-d]pyrimidin-3(2H)-one] reads 0.9 nM; that for `C=CCn1c(=O)c2cnc(Nc3ccc(N4CCN(C)CC4)c(OC)c3)nc2n1-c1cccc(N=S(C)(C)=O)n1` [Example 24, 1-(6-{[Dimethyl(oxo)-λ^6-sulfanylidene]amino}pyridin-2-yl)-6-{[3-methoxy-4-(4-methylpiperazin-1-yl)phenyl]amino}-2-(prop-2-en-1-yl)-1H,2H,3H-pyrazolo[3,4-d]pyrimidin-3-one], 1.4 nM; that for `C=CCn1c(=O)c2cnc(Nc3ccc(N4CCOCC4)c(OC)c3)nc2n1-c1cccc(N=S(C)(C)=O)n1` [Example 25, 1-(6-{[Dimethyl(oxo)-λ^6-sulfanylidene]amino}pyridin-2-yl)-6-{[3-methoxy-4-(morpholin-4-yl)phenyl]amino}-2-(prop-2-en-1-yl)-1H,2H,3H-pyrazolo[3,4-d]pyrimidin-3-one], 0.7 nM.

On to `C=CCn1c(=O)c2cnc(Nc3ccc(OCCNC)cc3)nc2n1-c1cccc(N=S(C)(C)=O)c1` [Example 27, 1-(3-{[Dimethyl(oxo)-λ^6-sulfanylidene]amino}phenyl)-6-({4-[2-(methylamino)ethoxy]phenyl}amino)-2-(prop-2-en-1-yl)-1H,2H,3H-pyrazolo[3,4-d]pyrimidin-3-one], for which the 50% inhibitory concentration (IC50) was 1.7 nM.

`C=CCn1c(=O)c2cnc(Nc3ccc(N4CCN(C)CC4)c(C)c3)nc2n1-c1cccc(N=S(C)(C)=O)n1` [Example 28, 1-(6-{[Dimethyl(oxo)-λ^6-sulfanylidene]amino}pyridin-2-yl)-6-{[3-methyl-4-(4-methylpiperazin-1-yl)phenyl]amino}-2-(prop-2-en-1-yl)-1H,2H,3H-pyrazolo[3,4-d]pyrimidin-3-one]: the IC50 was found to be 0.7 nM. With `C=CCn1c(=O)c2cnc(Nc3ccc(N4CCNCC4)c(CO)c3)nc2n1-c1cccc(N=S(C)(C)=O)c1` [Example 29, 1-(3-{[Dimethyl(oxo)-λ^6-sulfanylidene]amino}phenyl)-6-{[3-(hydroxymethyl)-4-(piperazin-1-yl)phenyl]amino}-2-(prop-2-en-1-yl)-1H,2H,3H-pyrazolo[3,4-d]pyrimidin-3-one] the figure was 0.9 nM; with `C=CCn1c(=O)c2cnc(Nc3ccc(N4CCN(C)CC4)c(CO)c3)nc2n1-c1cccc(N=S(C)(C)=O)c1` [Example 30, 1-(3-{[Dimethyl(oxo)-λ^6-sulfanylidene]amino}phenyl)-6-{[3-(hydroxymethyl)-4-(4-methylpiperazin-1-yl)phenyl]amino}-2-(prop-2-en-1-yl)-1H,2H,3H-pyrazolo[3,4-d]pyrimidin-3-one], 0.5 nM.
